Source: US20100009860A1, “Device and method for analysis of interactions between biomolecules” (priority 2004, published 2010)
Ends that are not written are not given here.

Legend:
[1] = test system: streptavidine-peptide/strep-tag II interaction; experiment: Inhibition of streptavidine-peptide/strep-tag II interactions on MG3 peptide-pair array, fluorescence read-out; assay type: binding; conditions: membrane incubated 30 min with agent (0.5 mM biotine) before analysis; excitation 366 nm, emission 510-530 nm
Protocol: The reading of the signal by fluorescence and the inhibition of the streptavidine-peptide/strep-tag II-interactions using the natural product biotine and their derivatives are shown.
A) The chemical structure of the exemplary molecular fork MG3.
The peptide being at the side of Fmoc was marked with a danysl-radical and the peptide being at the Aloc-side was marked with fluoresceine. The analysis was performed by detection of the light emission at 510-530 nm after excitation with light of a wave length of 366 nm using the Raytest DIANA chemiluminescence detection system. […]
Peptide pairs were synthesized at MG3 (FIG. 17A), whereby the constant peptide block strep-tag II was synthesized at the Aloc-side and marked with a fluoresceine radical. […] Differences in fluorescence properties of the spots were obtained with different peptide pairs, an enhanced fluorescence emission was detected for interacting peptide pairs.
For the inhibition of interaction of the peptide pairs, the modified membrane was treated with high-affinated, low-affine and non-affine agents with similar chemical properties before the analysis. […] Subsequently, the analysis of the fluorescence properties of the spots was carried out.

streptavidine [2] = molecular target: streptavidine (Streptomyces avidinii, UniProt P22629); experiment: Streptavidine/strep-tag II interaction using inhibition with biotine (Western blot, immunodetection); assay type: binding; conditions: 60 μg streptavidine/6 μg biotine, 1 h pre-incubation
Protocol: The cellulose, which was modified with peptide pairs corresponding to the embodiment shown in FIG. 7 by molecular forks MG1, was analyzed using the previously formed biotine/streptavidine-complex (60 μg streptavidine/6 μg biotine, 1 h pre-incubation) followed by Western Blot-analysis and immunodetection. A) Only just one side on the MG1 was attached to oligopeptides of the streptavidine-scans. The other side was modified by an acetylation reaction. B) Only just one side on the MG1 was attached to oligopeptides of the streptavidine-scan, and the strep-tag II-peptide was synthesized on the other side.
As described in example 2, peptide pairs were synthesized at the MG2, whereby the constant peptide block strep-tag II was synthesized at the Dde-side. At the Fmoc-side, overlapping 12 mer peptides were synthesized spanning the entire streptavidine-sequence with a 2-aminoacid shift. 60 μg streptavidine were pre-incubated using 6 μg biotine in the MP-buffer (30 mM tris-HCl, pH 7.6, 170 mM NaCl, 6.4 mM KCl, 0.05% Tween 20, 5% sucrose) for 60 min and it was subsequently incubated overnight at 4° C. while shaking with the cellulose. […]
A densitometric analysis of the intensities of each spot was performed by a GS-700 imaging densitometer (Bio-Rad) for quantifying the signals (FIG. 12).

FKBP12 [3] = molecular target: T1, FKBP12 (Mus musculus, UniProt P26883); experiment: Mapping of interaction region with peptide pairs on molecular fork MG2, FKBP12 as detection molecule; assay type: binding; conditions: 200 nM FKBP12, overlapping 13 mer FKBP12 peptides, 2-amino acid shift, cellulose
Protocol: A) The cellulose modified with peptide pairs by molecular forks MG2 was analyzed using 200 nM FKBP12 followed by Western Blot-analysis and immunodetection. The constant peptide block acetyl-KCPLLTAQFFEQS of FAP (Lys217-Ser229) was synthesized at the Dde-side. At the Fmoc-side, overlapping 13 mer peptides were synthesized spanning the entire FKBP12-sequence with a 2-amino acid shift. The densitometric analysis was performed using a GS-700 imaging densitometer (Bio-Rad). The ordinate represents the difference from the inverse value of the intensity of each spot and the inverse value of the average spot intensities. Large positive values correspond to a weak signal in the blot and show potential interactions within the peptide pair.
(§1) B) The cellulose modified with peptide pairs by molecular forks MG2 was analyzed using 200 nM FKBP12 followed by the Western Blot-analysis and immunodetection. […] The ordinate represents the difference from the inverse value of the intensity of each analyzed spot and the inverse value of the average spot intensities. […]
as §1, with “The” for “B) The”, “intensity.” for “intensities.”

streptavidine [4] = conditions: cited from earlier work
FKBP12 [5] = molecular target: T1, FKBP12; experiment: Mapping of FKBP12 binding sites by classical SPOT-technology and protein interaction analysis; conditions: SPOT peptide scan of FAP48 / cytosolic domain of EGF-receptor
Source text: In a first step, the FKBP12-binding sites in the FAP48 were mapped using classical SPOT-technology and protein interaction analysis.
In a first step, the FKBP12 binding sites in the cytosolic domain of the EGF-receptor (EGFR) were mapped by classical SPOT-technology and protein interaction analysis. […] Then, peptide pairs were synthesized at the MG12, as described in example 2, whereby the constant peptide block Ac-PHVCRLLGICLTS was synthesized at the Dde-side. At the Fmoc-side, overlapping 13 mer peptides were synthesized spanning the entwire FKBP12-sequence with a 2-aminoacid shift. In each case 48 individual spots resulted therefrom.

T1 sequence (P26883 whole entry): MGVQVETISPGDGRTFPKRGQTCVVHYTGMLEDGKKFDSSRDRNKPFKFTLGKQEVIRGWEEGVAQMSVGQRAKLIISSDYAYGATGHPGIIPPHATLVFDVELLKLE
streptavidine (Streptomyces avidinii, UniProt P22629), sequence (P22629 25-183): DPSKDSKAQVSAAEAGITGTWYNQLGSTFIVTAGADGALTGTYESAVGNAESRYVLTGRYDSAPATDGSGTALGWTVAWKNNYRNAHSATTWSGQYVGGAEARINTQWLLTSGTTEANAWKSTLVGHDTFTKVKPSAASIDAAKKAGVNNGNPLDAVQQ

## O=C(O)CCCC[C@@H]1SC[C@@H]2NC(=O)N[C@@H]21 [biotine]
[1]
  fluorescence emission of the spots (inhibition of peptide pair interaction): decreased
Streptavidine [2]
  bond of the streptavidine on the strep-tag II-peptide: blocked

## N[C@@H]1[C@H](CCCCC(=O)O)SC[C@@H]1N [diaminobiotine]
[1]
  fluorescence emission of the spots (inhibition of peptide pair interaction): very similar to the original fluorescence behaviour without a pharmaceutical agent

## acetyl-PHVCRLLGICLTS (Ac-PHVCRLLGICLTS; cysteine pairing not given here)
FKBP12 [3]
  interaction region in FKBP12: Met21-Ser67

## N=C1N[C@H]2[C@H](CS[C@H]2CCCCC(=O)O)N1 [2-iminobiotine]
Streptavidine [4]
  Ka: 8e+06 M⁻¹

## PHVCRLLGICLTS (Ac-PHVCRLLGICLTS; cysteine pairing not given here)
FKBP12 [5]
  interaction to FKBP12: particularly strong interacting

## LSPLYLLQFNMGH (Ac-LSPLYLLQFNMGH; not fully specified)
FKBP12 [5]
  interaction to FKBP12: mediate an interaction to FKBP12

## KCPLLTAQFFEQS (Ac-KCPLLTAQFFEQS; not fully specified)
FKBP12 [5]
  interaction to FKBP12: mediate an interaction to FKBP12
